Measured values: US11725005B2, “Compositions and methods for inhibiting kinases” (Inhibikase Therapeutics, Inc., priority 2015, dated 2023)

Experiments:
Cos 7 cells = test: Cell cytotoxicity CC50 and Therapeutic Index (CC50:EC50); settings: drug titration between 2 nM and 20 μM

Row | SMILES | Percent inhibition PDGFRa (PDGFRa) | Cell cytotoxicity: no toxicity up to (Cos 7 cells)
1 | Cc1csc(-c2cncc(-c3ccnc(Nc4cc(NC(=O)c5ccc(CN6CCN(C)CC6)cc5)ccc4C)n3)c2)n1 [Compound 8290] | 100 | –
2 | Cc1ccc(NC(=O)c2ccc(CN3CCN(C)CC3)cc2)cc1Nc1nccc(-c2cncc(-c3oncc3C)c2)n1 [Compound 809] | – | > 20 µM
3 | Cc1ccnc(-c2cncc(-c3ccnc(Nc4cc(NC(=O)c5ccc(CN6CCN(C)CC6)cc5)ccc4C)n3)c2)c1 [Compound 830] | 100 | > 20 µM
4 | Cc1ccc(NC(=O)c2ccc(CN3CCN(C)CC3)cc2)cc1Nc1nccc(-c2cncc(-c3nncs3)c2)n1 [Compound 8250] | 100 | > 20 µM
5 | Cc1ccc(NC(=O)c2ccc(CN3CCN(C)CC3)cc2)cc1Nc1nccc(-c2cncc(-c3ccn(C)n3)c2)n1 [Compound 832] | 100 | > 20 µM
6 | Cc1ccc(NC(=O)c2ccc(CN3CCN(C)CC3)cc2)cc1Nc1nccc(-c2cncc(-c3nccs3)c2)n1 [Compound 8270] | – | > 20 µM
7 | Cc1cnc(-c2cncc(-c3ccnc(Nc4cc(NC(=O)c5ccc(CN6CCN(C)CC6)cc5)ccc4C)n3)c2)s1 [Compound 8280] | 100 | > 20 µM
8 | Cc1cc(-c2cncc(-c3ccnc(Nc4cc(NC(=O)c5ccc(CN6CCN(C)CC6)cc5)ccc4C)n3)c2)sn1 [Compound 8190] | 100 | > 20 µM
